pIC50: −log10 of the molar value.
biological target: T1, rhJAK3 (Homo sapiens, UniProt P52333); assay: JAK Biochemical HTRF Assay (JAK3); details: recombinant purified GST-tagged catalytic domain, HTRF format, [ATP] 1.7 μM; read-out: rhJAK3 IC50
T1 construct: recombinant purified GST-tagged catalytic domain for each enzyme; purchased Invitrogen PV3855
Description: JAK Biochemical HTRF Assay Protocol
The ability of compounds to inhibit the activity of JAK1, JAK2, JAK3, and TYK2 was measured using a recombinant purified GST-tagged catalytic domain for each enzyme (Invitrogen JAK1 #PV4774, JAK2 #PV4210, JAK3 #PV3855, TYK2 #PV4790) in an HTRF format biochemical assay. The reactions employed a common peptide substrate, LCB-EQEDEPEGDYFEWLW-NH2. The basic assay protocol is as follows: First, […] of diluted compounds in DMSO were dispensed into the wells of a dry 384-well Black plate (Greiner #781076) using a Labcyte Echo 555 acoustic dispenser. Subsequent reagent additions employed a Thermo Multidrop Combi nL. Next, 10 μL of 2× enzyme and 2× substrate in 1× assay buffer (Invitrogen kinase buffer #PV3189, 2 mM DTT, 0.05% BSA) were added to the wells and preincubated for 30 min at room temperature to allow compound binding to equilibrate. After equilibration, 10 μl, of 2×ATP in 1× assay buffer was added to initiate the kinase reaction and the plates were incubated at room temperature for 120 min. At the end of the incubation, 20 μL of 2× stop buffer containing streptavidin-Dylight (Thermo #21845) and Eu-tagged pY20 antibody (Perkin Elmer #AD0067) was added to quench the reaction. Plates were further incubated 60 min at room temperature with shaking and then read on a Perkin Elmer Envision (λex=337 nm, λem=665 and 615 nm, TRF delay time=20 μs). HTRF signal=10,000*665 nm reading/615 nm reading. After normalization to untreated controls, the percent inhibition of the HTRF signal at each compound concentration was calculated. The plot of percent inhibition vs. the log of compound concentration was fit with a 4-parameter dose response equation to calculate IC50 values.

T1 sequence (P52333 822-1111 limits assumed): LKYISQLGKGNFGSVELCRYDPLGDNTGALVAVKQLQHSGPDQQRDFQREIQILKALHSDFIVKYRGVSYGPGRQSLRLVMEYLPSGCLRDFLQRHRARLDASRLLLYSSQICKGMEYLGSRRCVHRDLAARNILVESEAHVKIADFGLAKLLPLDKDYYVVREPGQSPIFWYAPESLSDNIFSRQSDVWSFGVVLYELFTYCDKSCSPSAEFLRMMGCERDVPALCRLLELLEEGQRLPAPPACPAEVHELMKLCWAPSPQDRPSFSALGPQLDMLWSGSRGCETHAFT

| SMILES | pIC50 |
| --- | --- |
| C[C@@H](Nc1cncc(-c2c[nH]c3ncc(Cl)cc23)n1)C(=O)NCC(F)(F)F [Example 1, N^2-[6-(5-Chloro-1H-pyrrolo[2,3-b]pyridin-3-yl)pyrazin-2-yl]-N-(2,2,2-trifluoroethyl)-D-alaninamide] | ≥ 9.00 |
| O=C(NCC(F)(F)F)[C@@H]1CC[C@@H](Nc2cncc(-c3c[nH]c4ncc(Cl)cc34)n2)C1 [Example 1-1, (1R,3R)-3-{[6-(5-chloro-1H-pyrrolo[2,3-b]pyridin-3-yl)-pyrazin-2-yl]amino}-N-(2,2,2-trifluoroethyl)cyclopentane-carboxamide] | 8.00 to 9.00 |
| O=C(NCC(F)(F)F)[C@H]1CC[C@H](Nc2cncc(-c3c[nH]c4ncc(Cl)cc34)n2)C1 [Example 1-4, (1S,3S)-3-{[6-(5-chloro-1H-pyrrolo[2,3-b]pyridin-3-yl)-pyrazin-2-yl]amino}-N-(2,2,2-trifluoroethyl)cyclopentane-carboxamide] | 7.00 to 8.00 |
| O=C(NCC(F)(F)F)[C@@H]1CCCN1c1cncc(-c2c[nH]c3ncc(Cl)cc23)n1 [Example 1-5, 1-[6-(5-chloro-1H-pyrrolo[2,3-b]pyridin-3-yl)-pyrazin-2-yl]-N-(2,2,2-trifluoroethyl)-L-prolinamide] | 8.00 to 9.00 |
| O=C(NCC(F)(F)F)[C@H]1CCCN1c1cncc(-c2c[nH]c3ncc(Cl)cc23)n1 [Example 1-6, 1-[6-(5-chloro-1H-pyrrolo[2,3-b]pyridin-3-yl)pyrazin-2-yl]-N-(2,2,2-trifluoroethyl)-D-prolinamide] | ≥ 9.00 |
| CCNC(=O)[C@H]1CCCN1c1cncc(-c2c[nH]c3ncc(Cl)cc23)n1 [Example 1-7, 1-[6-(5-chloro-1H-pyrrolo[2,3-b]pyridin-3-yl)pyrazin-2-yl]-N-ethyl-D-prolinamide] | 8.00 to 9.00 |
| O=C(NCC(F)(F)F)[C@@H]1CC(F)(F)CN1c1cncc(-c2c[nH]c3ncc(Cl)cc23)n1 [Example 1-8, 1-[6-(5-chloro-1H-pyrrolo[2,3-b]pyridin-3-yl)pyrazin-2-yl]-4,4-difluoro-N-(2,2,2-trifluoroethyl)-L-prolinamide] | 8.00 to 9.00 |
| CC1(C(=O)NCC(F)(F)F)CCN1c1cncc(-c2c[nH]c3ncc(Cl)cc23)n1 (stereo not drawn) [Example 1-9, 1-[6-(5-chloro-1H-pyrrolo[2,3-b]pyridin-3-yl)pyrazin-2-yl]-2-methyl-N-(2,2,2-trifluoroethyl)azetidine-2-carboxamide] | ≥ 9.00 |
| C[C@@]1(C(=O)NCC(F)(F)F)CCN1c1cncc(-c2c[nH]c3ncc(Cl)cc23)n1 [Example 1-10, (2S)-1-[6-(5-chloro-1H-pyrrolo[2,3-b]pyridin-3-yl)pyrazin-2-yl]-2-methyl-N-(2,2,2-trifluoroethyl)azetidine-2-carboxamide] | 8.00 to 9.00 |
| CC(C)[C@@H](Nc1cncc(-c2c[nH]c3ncc(Cl)cc23)n1)C(=O)NCC(F)(F)F [Example 1-12, N^2-[6-(5-chloro-1H-pyrrolo[2,3-b]pyridin-3-yl)pyrazin-2-yl]-N-(2,2,2-trifluoroethyl)-D-valinamide] | ≥ 9.00 |
| CC(C)(C)OC(=O)N1CCN(c2cncc(-c3c[nH]c4ncc(Cl)cc34)n2)[C@@H](C(=O)NCC(F)(F)F)C1 [Example 1-13, tert-butyl (3R)-4-[6-(5-chloro-1H-pyrrolo[2,3-b]pyridin-3-yl)pyrazin-2-yl]-3-[(2,2,2-trifluoroethyl)carbamoyl]-piperazine-1-carboxylate] | 8.00 to 9.00 |
| CC(C)(Nc1cncc(-c2c[nH]c3ncc(Cl)cc23)n1)C(=O)NCC(F)(F)F [Example 1-14, N^2-[6-(5-chloro-1H-pyrrolo[2,3-b]pyridin-3-yl)pyrazin-2-yl]-2-methyl-N-(2,2,2-trifluoroethyl)alaninamide] | ≥ 9.00 |
| COC(=O)c1ncc(N[C@@H](C)C(=O)NCC(F)(F)F)nc1-c1c[nH]c2ncc(Cl)cc12 [Example 1-16, methyl 3-(5-chloro-1H-pyrrolo[2,3-b]pyridin-3-yl)-5-({(1S)-1-methyl-2-oxo-2-[(2,2,2-trifluoroethyl)amino]ethyl}amino)-pyrazine-2-carboxylate] | 7.00 to 8.00 |
| C[C@H](Nc1cncc(-c2c[nH]c3ncc(Cl)cc23)n1)C(=O)NCC(F)(F)F [Example 2, N^2-[6-(5-Chloro-1H-pyrrolo[2,3-b]pyridin-3-yl)pyrazin-2-yl]-N-(2,2,2-trifluoroethyl)-L-alaninamide] | ≥ 9.00 |
| C[C@H](Nc1cncc(-c2c[nH]c3ncc(Cl)cc23)n1)C(=O)N1CCC(F)(F)C1 [Example 2-3, 6-(5-chloro-1H-pyrrolo[2,3-b]-pyridin-3-yl)-N-[(1S)-2-(3,3-difluoropyrrolidin-1-yl)-1-methyl-2-oxoethyl]pyrazin-2-amine] | 7.00 to 8.00 |
| C[C@@H](Nc1cncc(-c2c[nH]c3ncc(Cl)cc23)n1)C(=O)NCc1cccnc1Cl [Example 2-5, N-[(2-chloropyridin-3-yl)methyl]-N^2-[6-(5-chloro-1H-pyrrolo[2,3-b]-pyridin-3-yl)pyrazin-2-yl]-D-alaninamide] | 6.00 to 7.00 |

Further lines, results first:

| pIC50 | SMILES |
| --- | --- |
| ≥ 9.00 | CC(C)[C@@H](Nc1cncc(-c2c[nH]c3ncc(C(N)=O)cc23)n1)C(=O)NCC(F)(F)F [16 Step 8] |
| 8.00 to 9.00 | O=C(NCC(F)(F)F)[C@H]1CC[C@@H](Nc2cncc(-c3c[nH]c4ncc(Cl)cc34)n2)C1 [Example 1-2, (1S,3R)-3-{[6-(5-chloro-1H-pyrrolo[2,3-b]pyridin-3-yl)-pyrazin-2-yl]amino}-N-(2,2,2-trifluoroethyl)cyclopentane-carboxamide] |
| 8.00 to 9.00 | O=C(NCC(F)(F)F)[C@@H]1CC[C@H](Nc2cncc(-c3c[nH]c4ncc(Cl)cc34)n2)C1 [Example 1-3, (1R,3S)-3-{(6-(5-chloro-1H-pyrrolo[2,3-b]pyridin-3-yl)-pyrazin-2-yl]amino}-N-(2,2,2-trifluoroethyl)cyclopentane-carboxamide] |
| ≥ 9.00 | C[C@]1(C(=O)NCC(F)(F)F)CCN1c1cncc(-c2c[nH]c3ncc(Cl)cc23)n1 [Example 1-11, (2R)-1-[6-(5-chloro-1H-pyrrolo[2,3-b]pyridin-3-yl)pyrazin-2-yl]-2-methyl-N-(2,2,2-trifluoroethyl)azetidine-2-carboxamide] |
| 7.00 to 8.00 | O=C(NCC(F)(F)F)C1CN(c2cncc(-c3c[nH]c4ncc(Cl)cc34)n2)C1 [Example 1-15, 1-[6-(5-chloro-1H-pyrrolo[2,3-b]pyridin-3-yl)pyrazin-2-yl]-N-(2,2,2-trifluoroethyl)azetidine-3-carboxamide] |
| 7.00 to 8.00 | C[C@H](Nc1cncc(-c2c[nH]c3ncc(Cl)cc23)n1)C(=O)NCC#N [Example 2-1, N^2-[6-(5-chloro-1H-pyrrolo[2,3-b]-pyridin-3-yl)pyrazin-2-yl]-N-(cyanomethyl)-L-alaninamide] |
| 6.00 to 7.00 | C[C@H](Nc1cncc(-c2c[nH]c3ncc(Cl)cc23)n1)C(=O)N1CCOCC1 [Example 2-2, 6-(5-chloro-1H-pyrrolo[2,3-b]-pyridin-3-yl)-N-[(1S)-1-methyl-2-morpholin-4-yl-2-oxoethyl]pyrazin-2-amine] |
| 6.00 to 7.00 | C[C@H](Nc1cncc(-c2c[nH]c3ncc(Cl)cc23)n1)C(=O)N1CC(F)(F)C(F)(F)C1 [Example 2-4, 6-(5-chloro-1H-pyrrolo[2,3-b]-pyridin-3-yl)-N-[(1S)-1-methyl-2-oxo-2-(3,3,4,4-tetrafluoro-pyrrolidin-1-yl)ethyl]pyrazin-2-amine] |
